#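 Test compounds were applied to cells in 96-well plates for 48 hours at 5 doses. GI50 marks 50% less growth.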 Active and inactive are the calls of the source. No stated cut-off is given here; in the data, active = GI50 up to about 1.1 µM and inactive = higher.
# Tests used:
# Assay in all cases: NCI anticancer screen, dose series, 48 h
# [1] = test system: SNB-78
# [2] = test system: RXF 631
# [3] = test system: HOP-18
# [4] = test system: M19-MEL
# [5] = test system: KM-20L2
# [6] = test system: DMS-273
# [7] = test system: DLD-1
# [8] = test system: DMS-114
# [9] = test system: BT-549
SMILES,GI50 [1],GI50 [2],GI50 [3],GI50 [4],GI50 [5],GI50 [6],GI50 [7],GI50 [8],GI50 [9]
C=C1C(=O)C23CC1CCC2C12CO[C@@]3(O)[C@@H](O)C1C(C)(C)C=CC2=O (some centres not stated),0.718 µM (active),1.03 µM (active),1.19 µM (inactive),0.824 µM (active),1.44 µM (inactive),0.568 µM (active),0.721 µM (active),,
O=C1C(Cl)=C(Cl)C(=O)N1c1ccc(Cl)c(Cl)c1Cl,> 100 µM (inactive),> 100 µM (inactive),> 100 µM (inactive),88.3 µM (inactive),> 100 µM (inactive),> 100 µM (inactive),34.9 µM (inactive),32.7 µM (inactive),
COc1ccccc1NC(=O)C(=O)C1C(=O)Nc2ccccc2[S+]1[O-] (configuration not stated),> 100 µM (inactive),> 100 µM (inactive),> 100 µM (inactive),> 100 µM (inactive),> 100 µM (inactive),> 100 µM (inactive),> 100 µM (inactive),> 100 µM (inactive),
S=c1c2ccccc2c(=S)n2n1CC=CC2,> 100 µM (inactive),> 100 µM (inactive),> 100 µM (inactive),> 100 µM (inactive),> 100 µM (inactive),> 100 µM (inactive),> 100 µM (inactive),> 100 µM (inactive),
O=c1/c(=C/c2ccco2)sc2nc3ccccc3n12,> 10 µM (inactive),> 10 µM (inactive),> 100 µM (inactive),> 10 µM (inactive),> 10 µM (inactive),86.5 µM (inactive),> 10 µM (inactive),> 10 µM (inactive),
CCC1(OC(C)=O)C(=O)OCc2c1cc1n(c2=O)Cc2cc3ccccc3nc2-1 (configuration not stated),> 40.9 µM (inactive),3.85 µM (inactive),> 34.8 µM (inactive),2.48 µM (inactive),7.01 µM (inactive),0.388 µM (active),> 66.4 µM (inactive),0.611 µM (active),
O=C(NC(=O)c1ccccc1[N+](=O)[O-])Nc1ccc(Oc2ncc(Cl)cn2)c([N+](=O)[O-])c1,0.252 µM (active),0.286 µM (active),> 100 µM (inactive),0.135 µM (active),0.121 µM (active),0.0738 µM (active),0.217 µM (active),0.0865 µM (active),31.5 µM (inactive)
O=S(=O)(N/N=C\c1c2ccccc2[n+]([O-])c2ccccc12)c1ccc(Cl)cc1,> 100 µM (inactive),> 100 µM (inactive),32.4 µM (inactive),> 100 µM (inactive),> 100 µM (inactive),93.3 µM (inactive),> 100 µM (inactive),> 100 µM (inactive),
c1ccc([S+](c2ccccc2)c2ccc(Sc3ccc([S+](c4ccccc4)c4ccccc4)cc3)cc2)cc1,27.9 µM (inactive),58.2 µM (inactive),30.5 µM (inactive),18.1 µM (inactive),16.8 µM (inactive),19.5 µM (inactive),29.2 µM (inactive),3.2 µM (inactive),
